According to patent US8173694B2, “Therapeutic agent” (Pentraxin Therapeutics Limited, priority 2001, dated 2012):

What was measured:
[1] = target: T1, plasma SAP (Homo sapiens, UniProt P02743); experiment: Subcutaneous injection in patients with systemic amyloidosis: plasma SAP; assay type: in vivo; conditions: subcutaneous injection 0.25 mg/kg/day in 12 hourly divided doses
T1 construct: from tissue; host or cells: plasma of patients in vivo
Procedure: The doses of (R)-1-[6-(R)-2-Carboxy-pyrrolidin-1-yl]-6-oxo-hexanoyl]pyrrolidine-2-carboxylic acid (desapin) shown were given by 12 hourly subcutaneous injections to two individual patients with systemic amyloidosis, and with small and moderate amyloid loads respectively. The disappearance of circulating SAP was effectively the same as during intravenous infusion of the drug, and in the patient illustrated in the right panel, who had received a tracer dose of ^123I-SAP, there was accumulation of SAP in the liver and accelerated clearance from the spleen.

[2] = system: SAP; experiment: SAP binding to experimentally induced amyloid deposits in mice; assay type: in vivo, mouse; conditions: compared with 1-(3-Mercapto-2-methyl-1-oxopropyl)-D-proline
Source text: The potency of (R)-1-[6-(R)-2-Carboxy-pyrrolidin-1-yl]-6-oxo-hexanoyl]pyrrolidine-2-carboxylic acid in vivo was initially considered to be consistent with its lower IC50 value in vitro. However the decameric assembly of pentameric SAP molecules, induced by the cross linking capacity of the palindromic drug, is an abnormal molecular configuration which, according to the present invention, will be recognised in vivo and promptly cleared from the circulation. This action of the drug, leading to massive depletion of SAP from the plasma, makes a critical contribution to removal of SAP from the amyloid deposits because the SAP in amyloid is derived from, and in equilibrium with, the plasma SAP pool.

T1 sequence (P02743 20-223): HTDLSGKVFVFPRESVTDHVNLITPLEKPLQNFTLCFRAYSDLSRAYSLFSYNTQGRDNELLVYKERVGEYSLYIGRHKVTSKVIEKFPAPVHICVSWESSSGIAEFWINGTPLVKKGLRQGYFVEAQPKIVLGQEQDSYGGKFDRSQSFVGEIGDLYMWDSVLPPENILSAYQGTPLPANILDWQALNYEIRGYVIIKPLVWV

Question: With `O=C(O)[C@H]1CCCN1C(=O)CCCCC(=O)N1CCC[C@@H]1C(=O)O` [(R)-1-[6-(R)-2-Carboxy-pyrrolidin-1-yl]-6-oxo-hexanoyl]pyrrolidine-2-carboxylic acid] as the molecule, how does the “Effect on plasma SAP compared with intravenous infusion” value [1] read?
Answer: the same effect

Question: And the “Activity in inhibiting SAP binding and dissociating SAP from deposits, relative to lead compound” value [2]?
Answer: more active
